# Like-named read-outs stand apart in the source and are kept apart here.
SMILES,"mortality(%) Helicoverpa armigera (500 μg/mL) (Helicoverpa armigera; 500 μg/mL, 48 hours)",mortality(%) myzus persicae (600 μg/mL) (myzus persicae; in vivo),mortality(%) asparagus caterpillar (500 μg/mL) (asparagus caterpillar; in vivo),other results
C=CC=NNC(=N[N+](=O)[O-])NCCC [Compound 40],30%,8.3%,20%,–
C=CC=NNC(=N[N+](=O)[O-])NCCCC [Compound 41],20%,74.7%,10%,–
C=CC=NNC(=N[N+](=O)[O-])NCC=C [Compound 42],20%,37.1%,0%,–
C=CC=NNC(=N[N+](=O)[O-])NCc1ccccc1 [Compound 44],30%,45.8%,0%,–
CCCCCCC=NNC(=N[N+](=O)[O-])NCCC [Compound 45],20%,16.9%,20%,–
C=CCNC(=N[N+](=O)[O-])NN=CCCCCCC [Compound 47],0%,23.7%,0%,–
C#CCNC(=N[N+](=O)[O-])NN=CCCCCCC [Compound 48],30%,13.0%,0%,–
CCCCCCC=NNC(=N[N+](=O)[O-])NCc1ccccc1 [Compound 49],50%,28.6%,0%,–
CCCCC=NNC(=N[N+](=O)[O-])NCCC [Compound 51],30%,13.3%,10%,–
CCCCC=NNC(=N[N+](=O)[O-])NCCCC [Compound 52],20%,81.0%,60%,–
C=CCNC(=N[N+](=O)[O-])NN=CCCCC [Compound 53],40%,81.0%,80%,–
C#CCNC(=N[N+](=O)[O-])NN=CCCCC [Compound 54],40%,47.6%,10%,–
CCCCC=NNC(=N[N+](=O)[O-])NCc1ccccc1 [Compound 55],10%,49.2%,30%,–
CCNC(=N[N+](=O)[O-])NN=Cc1ccc(N(C)C)cc1 [Compound 69],–,90.6%,80%,mortality(%) Helicoverpa armigera (500 μg/mL) (Helicoverpa armigera; in vivo): 30%
C=CCNC(=N[N+](=O)[O-])NN=Cc1ccc(N(C)C)cc1 [Compound 72],–,23.6%,50%,mortality(%) Helicoverpa armigera (500 μg/mL) (Helicoverpa armigera; in vivo): 50%
CCCNC(=N[N+](=O)[O-])NN=Cc1ccccc1OC [Compound 73],50%,20.2%,70%,–
CCCCNC(=N[N+](=O)[O-])NN=Cc1ccccc1OC [Compound 74],0%,40.4%,30%,–
COc1ccccc1C=NNC(=N[N+](=O)[O-])NCc1ccccc1 [Compound 75],30%,92.8%,90%,–
C=CCNC(=N[N+](=O)[O-])NN=Cc1ccccc1OC [Compound 76],40%,3.4%,80%,–
C#CCNC(=N[N+](=O)[O-])NN=Cc1ccccc1OC [Compound 77],30%,4.2%,50%,–
CCCNC(=N[N+](=O)[O-])NN=Cc1ccccc1Cl [Compound 90],–,41.2%,50%,mortality(%) Helicoverpa armigera (500 μg/mL) (Helicoverpa armigera; in vivo): 10%
CCCCNC(=N[N+](=O)[O-])NN=Cc1ccccc1Cl [Compound 91],–,1.2%,80%,mortality(%) Helicoverpa armigera (500 μg/mL) (Helicoverpa armigera; in vivo): 0%
O=[N+]([O-])N=C(NCc1ccccc1)NN=Cc1ccccc1Cl [Compound 92],–,45.8%,70%,mortality(%) Helicoverpa armigera (500 μg/mL) (Helicoverpa armigera; in vivo): 50%
C#CCNC(=N[N+](=O)[O-])NN=Cc1ccccc1Cl [Compound 94],–,31.2%,60%,mortality(%) Helicoverpa armigera (500 μg/mL) (Helicoverpa armigera; in vivo): 50%

SMILES,"mortality(%) Helicoverpa armigera (500 μg/mL) (Helicoverpa armigera; 500 μg/mL, 48 hours)",mortality(%) myzus persicae (600 μg/mL) (myzus persicae; in vivo),mortality(%) asparagus caterpillar (500 μg/mL) (asparagus caterpillar; in vivo),other results
CCOc1ccc(C=NNC(=N[N+](=O)[O-])NC)cc1OC [Compound 95],–,58.0%,80%,mortality(%) Helicoverpa armigera (500 μg/mL) (Helicoverpa armigera; in vivo): 40%
CCCNC(=N[N+](=O)[O-])NN=Cc1ccc(OCC)c(OC)c1 [Compound 96],–,73.4%,50%,mortality(%) Helicoverpa armigera (500 μg/mL) (Helicoverpa armigera; in vivo): 20%
CCCCNC(=N[N+](=O)[O-])NN=Cc1ccc(OCC)c(OC)c1 [Compound 97],–,35.8%,70%,mortality(%) Helicoverpa armigera (500 μg/mL) (Helicoverpa armigera; in vivo): 40%
CCOc1ccc(C=NNC(=N[N+](=O)[O-])NCc2ccccc2)cc1OC [Compound 98],–,13.3%,10%,mortality(%) Helicoverpa armigera (500 μg/mL) (Helicoverpa armigera; in vivo): 40%
C=CCNC(=N[N+](=O)[O-])NN=Cc1ccc(OCC)c(OC)c1 [Compound 99],–,45.8%,30%,mortality(%) Helicoverpa armigera (500 μg/mL) (Helicoverpa armigera; in vivo): 50%
CCCNC(=N[N+](=O)[O-])NN=Cc1ccc(F)cc1 [Compound 100],–,20.3%,90%,mortality(%) Helicoverpa armigera (500 μg/mL) (Helicoverpa armigera; in vivo): 20%
C=CCNC(=N[N+](=O)[O-])NN=Cc1ccc(F)cc1 [Compound 101],–,17.7%,30%,mortality(%) Helicoverpa armigera (500 μg/mL) (Helicoverpa armigera; in vivo): 40%
C#CCNC(=N[N+](=O)[O-])NN=Cc1ccc(F)cc1 [Compound 102],–,31.6%,50%,mortality(%) Helicoverpa armigera (500 μg/mL) (Helicoverpa armigera; in vivo): 50%
Cc1ccc(C=NNC(=N[N+](=O)[O-])NCc2ccc(Cl)nc2)cc1 [Compound 107],10%,–,–,"mortality(%) myzus persicae (600 μg/mL) (myzus persicae; 600 μg/mL): 3.7%; mortality(%) asparagus caterpillar (500 μg/mL) (asparagus caterpillar; 500 μg/mL, 48 hours): 20%"
CNC(=N[N+](=O)[O-])NN=Cc1ccccc1Cl [Compound 117],–,–,–,mortality(%) bemisia tabaci gennadius (500 μg/mL) (bemisia tabaci gennadius; in vivo): 17.78%
CNC(=N[N+](=O)[O-])NN=Cc1cccc(Oc2ccccc2)c1 [Compound 118],–,–,–,mortality(%) bemisia tabaci gennadius (500 μg/mL) (bemisia tabaci gennadius; in vivo): 14.81%
CNC(=N[N+](=O)[O-])NN=Cc1ccccc1OC [Compound 119],–,–,–,"mortality(%) bemisia tabaci gennadius (500 μg/mL) (bemisia tabaci gennadius; 500 μg/mL, 48 hours): 72.00%"
CNC(=N[N+](=O)[O-])NN=Cc1ccc(N(C)C)cc1 [Compound 120],–,–,–,mortality(%) bemisia tabaci gennadius (500 μg/mL) (bemisia tabaci gennadius; in vivo): 82.76%
CNC(=N[N+](=O)[O-])NN=Cc1ccc(OC)cc1 [Compound 121],–,–,–,mortality(%) bemisia tabaci gennadius (500 μg/mL) (bemisia tabaci gennadius; in vivo): 16.95%
CNC(=N[N+](=O)[O-])NN=Cc1ccc(F)cc1 [Compound 123],–,–,–,mortality(%) bemisia tabaci gennadius (500 μg/mL) (bemisia tabaci gennadius; in vivo): 4.69%
CNC(=N[N+](=O)[O-])NN=Cc1ccco1 [Compound 124],–,–,–,mortality(%) bemisia tabaci gennadius (500 μg/mL) (bemisia tabaci gennadius; in vivo): 88.68%
CCNC(=N[N+](=O)[O-])NN=Cc1ccccc1Cl [Compound 125],–,–,–,mortality(%) bemisia tabaci gennadius (500 μg/mL) (bemisia tabaci gennadius; in vivo): 53.06%
CCNC(=N[N+](=O)[O-])NN=Cc1ccc(OCC)c(OC)c1 [Compound 126],–,–,–,mortality(%) bemisia tabaci gennadius (500 μg/mL) (bemisia tabaci gennadius; in vivo): 6.67%
CCNC(=N[N+](=O)[O-])NN=Cc1ccc(OC)cc1 [Compound 127],–,–,–,mortality(%) bemisia tabaci gennadius (500 μg/mL) (bemisia tabaci gennadius; in vivo): 24.56%
CCNC(=N[N+](=O)[O-])NN=Cc1ccc(F)cc1 [Compound 129],–,–,–,mortality(%) bemisia tabaci gennadius (500 μg/mL) (bemisia tabaci gennadius; in vivo): 8.62%
CCCNC(=N[N+](=O)[O-])NN=Cc1ccc(OC)cc1 [Compound 130],–,–,–,mortality(%) bemisia tabaci gennadius (500 μg/mL) (bemisia tabaci gennadius; in vivo): 18.46%
COc1ccc(C=NNC(=N[N+](=O)[O-])NCc2ccccc2)cc1 [Compound 131],–,–,–,mortality(%) bemisia tabaci gennadius (500 μg/mL) (bemisia tabaci gennadius; in vivo): 1.89%
O=[N+]([O-])N=C(NCc1ccccc1)NN=Cc1ccc(F)cc1 [Compound 133],–,–,–,mortality(%) bemisia tabaci gennadius (500 μg/mL) (bemisia tabaci gennadius; in vivo): 3.77%

# From patent US20110306639A1, “HYDROCARBYLIDENE NITROHYDROZINECARBOXIMIDAMIDES AND A METHOD FOR MAKING THE SAME, AS WELL AS THEIR USES AS AN INSECTICIDE” (priority 2008, published 2011)
